The structures appear in SMILES notation. Bridge positions count the residues as written; N and C are the ends. Square brackets hold non-standard residues; d marks the D form. Peptide text beside a SMILES is read from it. * marks the point of attachment. ξ: configuration not given here. Phe(4-COOH) = N[C@@H](Cc1ccc(C(=O)O)cc1)C(=O)O; Bip = N[C@@H](Cc1ccc(-c2ccccc2)cc1)C(=O)O; Phe(3-Me) = Cc1cccc(C[C@H](N)C(=O)O)c1; Cha = N[C@@H](CC1CCCCC1)C(=O)O; Cit = NC(=O)NCCC[C@H](N)C(=O)O; Thr(3ξ) = CC(O)[C@H](N)C(=O)O; Carboxymethyl = O=C(O)C*; Orn = NCCC[C@H](N)C(=O)O; Aun = NCCCCCCCCCCC(=O)O; Dab = NCC[C@H](N)C(=O)O; AEEA = NCCOCCOCC(=O)O

For the test, the target named is T1, PD-1/PD-L1 interaction (PE-labeled human PD-L1-Ig binding to Jurkat cell line over-expressing human PD-1) (Homo sapiens, UniProt Q15116).
T1 construct: expressed in transfected cells; host or cells: Jurkat
T1 sequence (Q15116 25-288): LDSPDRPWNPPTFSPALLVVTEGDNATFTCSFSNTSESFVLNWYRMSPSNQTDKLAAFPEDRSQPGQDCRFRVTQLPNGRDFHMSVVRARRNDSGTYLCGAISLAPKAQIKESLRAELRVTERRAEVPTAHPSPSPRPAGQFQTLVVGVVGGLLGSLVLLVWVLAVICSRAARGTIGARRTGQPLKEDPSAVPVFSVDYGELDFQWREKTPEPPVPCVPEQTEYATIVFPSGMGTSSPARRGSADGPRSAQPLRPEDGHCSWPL
Kind of test: Jurkat-PD-1 Cell Binding High-Content Screening Assay (CBA). In kind it is cell-based. The following applies: Jurkat cell line over-expressing human PD-1; PE-labeled PD-L1-Ig 20 nM final; read-out: Jurkat hPD1-PDL1 IC50. A digest of the protocol:
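Jurkat cells over-expressing human PD-1 (8×10^3 per well, DMEM/10% FCS) preincubated with compound 2 h at 37° C, then PE-labeled human PD-L1-Ig (20 nM final) added for 1 h. Cells fixed with paraformaldehyde, Hoechst-stained, and bound fluorescence quantified by high-content imaging.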
With `Cc1cccc(C[C@@H]2NC(=O)[C@H](CC(=O)O)NC(=O)[C@H](Cc3ccc(OCC(=O)O)cc3)NC(=O)[C@H](CCCNC(=N)N)NC(=O)CSC[C@@H](C(=O)N[C@@H](CCN)C(=O)NCCCCCCCCCCC(=O)O)NC(=O)[C@H](C(C)O)NC(=O)[C@H](C(C)C)NC(=O)[C@H](CC3CCCCC3)NC(=O)[C@H](CCN)NC(=O)[C@@H](CC(C)C)NC(=O)[C@H](CCCN)NC(=O)[C@H](Cc3ccc(O)cc3)NC(=O)[C@H](Cc3ccc(-c4ccccc4)cc3)NC(=O)[C@H](C(C)C)NC2=O)c1` (stereo partly drawn) [Compound 3457] ({CH2CO}-RY(Carboxymethyl)D[Phe(3-Me)]V[Bip]Y[Orn][dL][Dab][Cha]V[Thr(3ξ)]C[Dab][Aun]-OH; thioether N-14), the IC50 is 37.4 nM.
As to `Cc1cccc(C[C@@H]2NC(=O)[C@H](CC(=O)O)NC(=O)[C@H](Cc3ccc(OCC(=O)O)cc3)NC(=O)[C@H](C(C)O)NC(=O)CSC[C@@H](C(=O)N[C@@H](CCN)C(=O)NCCCCCCCCCCC(=O)O)NC(=O)[C@H](C(C)O)NC(=O)[C@H](C(C)C)NC(=O)[C@H](CC3CCCCC3)NC(=O)[C@H](CCN)NC(=O)[C@@H](CC(C)C)NC(=O)[C@H](CCCN)NC(=O)[C@H](CCCNC(N)=O)NC(=O)[C@H](Cc3ccc(-c4ccccc4)cc3)NC(=O)[C@H](C(C)C)NC2=O)c1` (stereo partly drawn) [Compound 3458] ({CH2CO}-[Thr(3ξ)]Y(Carboxymethyl)D[Phe(3-Me)]V[Bip][Cit][Orn][dL][Dab][Cha]V[Thr(3ξ)]C[Dab][Aun]-OH; thioether N-14), the IC50 was found to be 18.4 nM.
On to `Cc1cccc(C[C@@H]2NC(=O)[C@H](CC(=O)O)NC(=O)[C@H](Cc3ccc(OCC(=O)O)cc3)NC(=O)[C@H](CCCNC(=N)N)NC(=O)CSC[C@@H](C(=O)NCCOCCOCC(=O)NCCCCCCCCCCC(=O)O)NC(=O)[C@H](C(C)O)NC(=O)[C@H](C(C)C)NC(=O)[C@H](CC3CCCCC3)NC(=O)[C@H](CCN)NC(=O)[C@@H](CC(C)C)NC(=O)[C@H](CCCN)NC(=O)[C@H](CCCNC(N)=O)NC(=O)[C@H](Cc3ccc(-c4ccccc4)cc3)NC(=O)[C@H](C(C)C)NC2=O)c1` (stereo partly drawn) [Compound 3459] ({CH2CO}-RY(Carboxymethyl)D[Phe(3-Me)]V[Bip][Cit][Orn][dL][Dab][Cha]V[Thr(3ξ)]C[AEEA][Aun]-OH; thioether N-14), for which the IC50 stood at 14.2 nM.
`Cc1cccc(C[C@@H]2NC(=O)[C@H](CC(=O)O)NC(=O)[C@H](Cc3ccc(OCC(=O)O)cc3)NC(=O)[C@H](C(C)O)NC(=O)CSC[C@@H](C(=O)NCCOCCOCC(=O)NCCCCCCCCCCC(=O)O)NC(=O)[C@H](C(C)O)NC(=O)[C@H](C(C)C)NC(=O)[C@H](CC3CCCCC3)NC(=O)[C@H](CCN)NC(=O)[C@@H](CC(C)C)NC(=O)[C@H](CCCN)NC(=O)[C@H](CCCNC(N)=O)NC(=O)[C@H](Cc3ccc(-c4ccccc4)cc3)NC(=O)[C@H](C(C)C)NC2=O)c1` (stereo partly drawn) [Compound 3460] ({CH2CO}-[Thr(3ξ)]Y(Carboxymethyl)D[Phe(3-Me)]V[Bip][Cit][Orn][dL][Dab][Cha]V[Thr(3ξ)]C[AEEA][Aun]-OH; thioether N-14): the IC50 was found to be 17 nM.
For the molecule `Cc1cccc(C[C@@H]2NC(=O)[C@H](CC(=O)O)NC(=O)[C@H](Cc3ccc(C(=O)O)cc3)NC(=O)[C@H](Cc3ccc(OCC(=O)O)cc3)NC(=O)CSC[C@@H](C(=O)N[C@@H](CCN)C(=O)NCCCCCCCCCCC(=O)O)NC(=O)[C@H](C(C)O)NC(=O)[C@H](C(C)C)NC(=O)[C@H](CC3CCCCC3)NC(=O)[C@H](CCN)NC(=O)[C@@H](CC(C)C)NC(=O)[C@H](CCCN)NC(=O)[C@H](CCCNC(N)=O)NC(=O)[C@H](Cc3ccc(-c4ccccc4)cc3)NC(=O)[C@H](CC(C)C)NC2=O)c1` (stereo partly drawn) [Compound 3463] ({CH2CO}-Y(Carboxymethyl)[Phe(4-COOH)]D[Phe(3-Me)]L[Bip][Cit][Orn][dL][Dab][Cha]V[Thr(3ξ)]C[Dab][Aun]-OH; thioether N-14), the IC50 worked out at 31.3 nM.
Regarding `CC(=O)NCCCC[C@@H]1NC(=O)[C@H](Cc2ccc(-c3ccccc3)cc2)NC(=O)[C@H](Cc2ccccc2)NC(=O)[C@H](Cc2cccc(C)c2)NC(=O)[C@H](CC(=O)O)NC(=O)[C@H](Cc2ccc(OCC(=O)O)cc2)NC(=O)[C@H](C(C)O)NC(=O)CSC[C@@H](C(=O)N[C@@H](CCN)C(=O)NCCCCCCCCCCC(=O)O)NC(=O)[C@H](C(C)O)NC(=O)[C@H](C(C)C)NC(=O)[C@H](CC2CCCCC2)NC(=O)[C@H](CCN)NC(=O)[C@@H](CC(C)C)NC(=O)[C@H](CCCNC(N)=O)NC1=O` (stereo partly drawn) [Compound 3466] ({CH2CO}-[Thr(3ξ)]Y(Carboxymethyl)D[Phe(3-Me)]F[Bip]K(Ac)[Cit][dL][Dab][Cha]V[Thr(3ξ)]C[Dab][Aun]-OH; thioether N-14), the IC50 is 19.5 nM.
Turning to `Cc1cccc(C[C@@H]2NC(=O)[C@H](CC(=O)O)NC(=O)[C@H](Cc3ccc(OCC(=O)O)cc3)NC(=O)[C@H](C(C)O)NC(=O)CSC[C@@H](C(=O)N[C@@H](CCCCN)C(=O)NCCCCCCCCCCC(=O)O)NC(=O)[C@H](C(C)O)NC(=O)[C@H](C(C)C)NC(=O)[C@H](CC3CCCCC3)NC(=O)[C@H](CCN)NC(=O)[C@@H](CC(C)C)NC(=O)[C@H](CCCN)NC(=O)[C@H](CCCNC(N)=O)NC(=O)[C@H](Cc3ccc(-c4ccccc4)cc3)NC(=O)[C@H](C(C)C)NC2=O)c1` (stereo partly drawn) [Compound 3467] ({CH2CO}-[Thr(3ξ)]Y(Carboxymethyl)D[Phe(3-Me)]V[Bip][Cit][Orn][dL][Dab][Cha]V[Thr(3ξ)]CK[Aun]-OH; thioether N-14), the IC50 was 33 nM.
In the case of `Cc1cccc(C[C@@H]2NC(=O)[C@H](CC(=O)O)NC(=O)[C@H](Cc3ccc(OCC(=O)O)cc3)NC(=O)[C@H](CCCNC(=N)N)NC(=O)CSC[C@@H](C(=O)N[C@@H](CCCCN)C(=O)NCCCCCCCCCCC(=O)O)NC(=O)[C@H](C(C)O)NC(=O)[C@H](C(C)C)NC(=O)[C@H](CC3CCCCC3)NC(=O)[C@H](CCN)NC(=O)[C@@H](CC(C)C)NC(=O)[C@H](CCCN)NC(=O)[C@H](CCCNC(N)=O)NC(=O)[C@H](Cc3ccc(-c4ccccc4)cc3)NC(=O)[C@H](C(C)C)NC2=O)c1` (stereo partly drawn) [Compound 3468] ({CH2CO}-RY(Carboxymethyl)D[Phe(3-Me)]V[Bip][Cit][Orn][dL][Dab][Cha]V[Thr(3ξ)]CK[Aun]-OH; thioether N-14), the IC50 came out at 26 nM.
In the case of `Cc1cccc(C[C@@H]2NC(=O)[C@H](CC(=O)O)NC(=O)[C@H](Cc3ccc(OCC(=O)O)cc3)NC(=O)[C@H](C(C)O)NC(=O)CSC[C@@H](C(=O)N[C@@H](CCCCN)C(=O)NCCCCCCCCCCC(=O)O)NC(=O)[C@H](CCCCN)NC(=O)[C@H](C(C)C)NC(=O)[C@H](CC3CCCCC3)NC(=O)[C@H](CCN)NC(=O)[C@@H](CC(C)C)NC(=O)[C@H](CCCN)NC(=O)[C@H](CCCNC(N)=O)NC(=O)[C@H](Cc3ccc(-c4ccccc4)cc3)NC(=O)[C@H](C(C)C)NC2=O)c1` (stereo partly drawn) [Compound 3469] ({CH2CO}-[Thr(3ξ)]Y(Carboxymethyl)D[Phe(3-Me)]V[Bip][Cit][Orn][dL][Dab][Cha]VKCK[Aun]-OH; thioether N-14) it was 16.9 nM.
In the case of `Cc1cccc(C[C@@H]2NC(=O)[C@H](CC(=O)O)NC(=O)[C@H](Cc3ccc(OCC(=O)O)cc3)NC(=O)[C@H](CCCNC(=N)N)NC(=O)CSC[C@@H](C(=O)N[C@@H](CCCCN)C(=O)NCCCCCCCCCCC(=O)O)NC(=O)[C@H](CCCCN)NC(=O)[C@H](C(C)C)NC(=O)[C@H](CC3CCCCC3)NC(=O)[C@H](CCN)NC(=O)[C@@H](CC(C)C)NC(=O)[C@H](CCCN)NC(=O)[C@H](CCCNC(N)=O)NC(=O)[C@H](Cc3ccc(-c4ccccc4)cc3)NC(=O)[C@H](C(C)C)NC2=O)c1` [Compound 3470] ({CH2CO}-RY(Carboxymethyl)D[Phe(3-Me)]V[Bip][Cit][Orn][dL][Dab][Cha]VKCK[Aun]-OH; thioether N-14), the IC50 was determined as 24.8 nM.

The IC50 is the concentration needed to halve the response being measured.

Values taken from patent US20260022142A1, “MACROCYCLIC IMMUNOMODULATORS” (Bristol-Myers Squibb Company, priority 2022, published 2026).
